The record followed here is patent EP1406920B1, “NOVEL CHROMOGENIC SUBSTANCES AND USE THEREOF FOR THE DETERMINATION OF CARBOXYPEPTIDASE ACTIVITIES” (Diagnostica Stago, priority 2001, dated 2003).

Holding throughout (format): biochemical
Assay [1] has as its target T1, TAFI purifié (Homo sapiens, UniProt Q96IY4).
T1 sequence (Q96IY4 115-423): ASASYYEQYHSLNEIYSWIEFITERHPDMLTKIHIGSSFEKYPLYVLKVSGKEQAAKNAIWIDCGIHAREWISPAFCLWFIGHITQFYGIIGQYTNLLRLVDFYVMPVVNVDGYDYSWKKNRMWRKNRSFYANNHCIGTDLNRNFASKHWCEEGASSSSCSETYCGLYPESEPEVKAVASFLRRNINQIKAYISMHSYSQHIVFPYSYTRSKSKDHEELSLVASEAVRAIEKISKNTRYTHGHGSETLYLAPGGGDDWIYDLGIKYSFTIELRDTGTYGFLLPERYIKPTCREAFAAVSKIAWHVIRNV
The experiment in a line: Colorimetric TAFI activity assay on purified TAFI with different substrates (thrombin/thrombomodulin activation, carboxypeptidase A revelation). The settings on record: substrate 5 mM; 6,5 µg/ml TAFI purifié in hépès buffer; read at 320-350 nm.

The subject of assay [2] is carboxypeptidase B pancréatique porcine. The experiment in a line: Decoloration of single-amino-acid substrate AAFR by pancreatic carboxypeptidase B. The settings on record: CPB porcine 5,2 mol/l in hépès buffer; AAFR 5 mM (0,25 mM); 382 nm. The text has this: (§1) L'exemple ci-après vise à démontrer la nécessité d'utiliser la méthode et les composés de formule (I) de l'invention pour doser spécifiquement l'activité des CPN ou U, en particulier le TAFI, par rapport à d'autres carboxypeptidases basiques. 1. Le dosage est dans ce cas réalisé avec un substrat de la famille de composés décrites par Mock dans (14). Ce substrat est constitué d'un seul acide aminé porteur du radical chromophore anizylazoformyl (portion CH3OC6H4-N = N-CO-). L'acide aminé choisi est l'arginine, un acide aminé basique normalement hydrolysé par les carboxypeptidases B (1). Ce substrat est dénommé ci-après AAFR (AnizylAzoFormyArginine) ou MxAFR (4-MethoxyphenylAzoformylarginine). Ce substrat (0,25 mM) est mis en présence soit d'un échantillon de TAFI plasmatique, soit d'une solution de carboxypeptidase B pancréatique porcine (Sigma - Réf. C9584) à 5,2 mol/l. La diminution de coloration de chacun des deux échantillons est suivie au spectrophotomètre. Chacun des échantillons est traité selon le protocole suivant : • a) échantillon de départ : • TAFI plasmatique (présent dans un pool normal de plasmas - dilué au 1/20) ou • Carboxypeptidase B pancréatique porcine 5,2 mol/l (dans tampon hépès) • b) activation avec complexe thrombine-thrombomoduline-CaCl2 (voir exemple 2) pour l'échantillon de TAFI plasmatique. • c) addition de AAFR à 5 mM. • d) lecture DO à 382 nm.

The target of assay [3] is T1, TAFI purifié. The assay is described as follows: Specificity test on purified TAFI solution: MxAFR versus MxPAFFK. The settings on record: for DO de départ / DO finale / Delta DO: TAFI purifié 18 µg/ml, activated, MxAFR 27 mM without CPA, MxPAFFK with CPA added, 382 nm; for hydrolyse par le TAFI activé: conclusion in words, purified TAFI 18 µg/ml. The source says:
2. La méthode de l'invention est ensuite appliquée sur une solution de TAFI purifiée, soit avec un substrat de formule (I) (MxPAFFK), soit avec le MxAFR pour vérifier que le TAFIa hydrolyse néanmoins un composé de formule (I). L'activation de la coagulation est déclenchée par le complexe thrombine-thrombomoduline-CaCl2 (voir protocole exemple 2). La diminution de coloration de chacun des deux échantillons est suivie au spectrophotomètre. • a) échantillons de départ : solution de TAFI purifié à18 µg/ml (dilué dans tampon hépès). • b) activation de la coagulation. • c) addition de MxAFR 27 mM ou MxPAFFK (témoin) concentration du MxAFFK. • d) addition de CPA dans l'échantillon contenant le MxPAFFK. • e) lecture DO à 382 nm.

The target of a further assay is T2, TAFI plasmatique (Homo sapiens, UniProt Q96IY4).
T2 construct: from tissue; host or cells: normal plasma pool, diluted 1/20
T2 sequence (Q96IY4 115-423): T1 sequence (Q96IY4 115-423)
The assay is described as follows: Decoloration of single-amino-acid substrate AAFR by activated plasma TAFI.
Description: as §1

In assay [4] the target is T1, TAFI purifié. The experiment in a line: Calibration range, thrombin/thrombomodulin method, TAFI-deficient plasma spiked with purified TAFI. The note with it: substrate 5 mM. As to the method: L'échantillon de plasma testé est divisé en deux aliquotes, l'un étant additionné de PIC (Calbiochem - Réf. 217359), l'autre de tampon hépès. Les deux aliquotes sont ensuite traités de manière identique selon le principe suivant :
• 150 µl de plasma dilué au 1/20 en tampon hépès (ou TAFI purifié à 13 µg/ml en tampon hépès. • 10 µl PIC ou H2O • 5 minutes à température ambiante • 150 µl tampon activateur de la coagulation • 10 minutes à température ambiante • 100 µl PPACK + 100 µl MxPAFFR (substrat) (5 mM)
• 30 minutes à température ambiante • 100 µl HCl 1M + 100 µl NaOH 1M
• Dilution au 1/3 en tampon hépès • Lecture de la DO à 382 nm • 25 µl Carboxypeptidase A • Lecture de la DO à 382 nm sur 1 minute
La figure 3 ci-après représente une courbe d'étalonnage établie à partir d'un plasma déficient en TAFI surchargé avec du TAFI purifié pour obtenir une gamme de concentration en TAFI allant de 0 à 26 µg/ml. Le composé de formule I utilisé est le MxPAAFR à une concentration de 5 mM. Les Δ DO mesurés selon la méthode de l'invention sont reportés dans le tableau III suivant : TABLEAU III : […]

[5] abbreviates: TAFIa du plasma (normal plasma pool diluted 1/20, thrombine-thrombomoduline-CaCl2 activation), AAFR 5 mM (0,25 mM), 382 nm.

Consider `Cc1cccc(N=NC(=O)N[C@@H](Cc2ccccc2)C(=O)N[C@@H](CCCNC(=N)N)C(=O)O)c1C` [2,3 DMPAFFR, 2,3-dimethylphenylazoformylphenylalanylarginine], for which, at TAFI purifié [1], the “DO de départ” value is listed as 0.318, the DO finale stood at 0.089 and the “Delta DO” value was 0.229.

For the molecule `Cc1ccc(N=NC(=O)N[C@@H](Cc2ccccc2)C(=O)N[C@@H](CCCNC(=N)N)C(=O)O)c(C)c1` [2,4 DMPAFFR, 2,4-dimethylphenylazoformylphenylalanylarginine], on TAFI purifié [1], the “DO de départ” value worked out at 1.004, the DO finale came to 0.087 and the “Delta DO” value is recorded as 0.917.

As for `Cc1ccc(C)c(N=NC(=O)N[C@@H](Cc2ccccc2)C(=O)N[C@@H](CCCNC(=N)N)C(=O)O)c1` [2,5 DMPAFFR, 2,5-dimethylphenylazoformylphenylalanylarginine], on TAFI purifié [1], the “DO de départ” value came to 0.973, the DO finale came to 0.131 and the “Delta DO” value turned out to be 0.842.

With `COc1ccc(N=NC(=O)N[C@@H](CCCNC(=N)N)C(=O)O)cc1` [AAFR, 4-MethoxyphenylAzoformylarginine], the “Delta DO” value in assay [2] is given as 0.608; at TAFI purifié [3], 0.056; at TAFI plasmatique (setting [5]), 0.049. Also, the “DO de départ” value on TAFI purifié [3] worked out at 1.356; at TAFI plasmatique (setting [5]), 1.730. The results for the DO finale on TAFI purifié [3] and on TAFI plasmatique (setting [5]) were 1.300 and 1.681, respectively. The “hydrolyse par le TAFI activé” value at TAFI purifié [3] was “n'hydrolyse pas”; at TAFI plasmatique (conclusion in words, plasma TAFIa), “n'hydrolyse pas”.

In the case of `COc1ccc(N=NC(=O)N[C@@H](Cc2ccccc2)C(=O)N[C@@H](CCCNC(=N)N)C(=O)O)cc1` [MxPAAFR, 4-methoxyphenylazoformylphenylalanylarginine], the “Δ DO mesuré” value on TAFI purifié [4] (concentration en TAFIa 0 µg/ml) is recorded as 0.168; on TAFI purifié [4] (concentration en TAFIa 1.63 µg/ml), 0.217; at TAFI purifié [4] (concentration en TAFIa 3.25 µg/ml), 0.273; on TAFI purifié [4] (concentration en TAFIa 6.5 µg/ml), 0.399; on TAFI purifié [4] (concentration en TAFIa 13 µg/ml), 0.624; at TAFI purifié [4] (concentration en TAFIa 26 µg/ml), 0.995.

Regarding `COc1ccc(N=NC(=O)N[C@@H](Cc2ccccc2)C(=O)N[C@@H](CCCCN)C(=O)O)cc1` [MxPAFFK, 4-methoxyphenylazoformylphenylalanyllysine], on TAFI purifié [3], the “DO de départ” value is recorded as 1.397, the DO finale stood at 0.849, the “Delta DO” value amounted to 0.548 and the “hydrolyse par le TAFI activé” value is listed as “actif”. At TAFI purifié [1], the “DO de départ” value is recorded as 0.973, the DO finale came out at 0.131 and the “Delta DO” value is given as 0.842.
